Test results reported in patent US20060057657A1, “Stem cell selection and differentiation” (Oregon Health & Science University Technology & Research …, priority 2002, published 2006).

Experiments:
Type in all cases: cell-based, mouse
ES cells [1] = test: ES cell proliferation rate / doubling time under treatment
Procedure: If grown in galactose as the sole carbon source, a sub-population of cells need to engage in active oxidative phosphorylation to convert galactose to glucose. In one embodiment, ES cells are selected in galactose-containing culture medium for an incubation period of about four days.
(§1) In order to establish the relationship between ES cell JC-1 fluorescence, respiration and differentiation permissiveness, cells may be grown under hypoxic (<2% oxygen) or normnoxic conditions and assayed for JC-1 red/green ratio, oxygen consumption and lactate secretion, proliferation rate, ES cell self-renewal (STAT3 activity), and differentiation permissiveness by chimeric assays. ES cells with high mitochondrial membrane potential (as shown by high JC-1 red/green ratio) display low differentiation permissiveness, while those with low mitochondrial membrane potential (JC-1 green) display high differentiation permissiveness. […] ES cells on galactose also consume about 50% more oxygen than those sustained on glucose. ES cell proliferation rates for control and hypoxic cells (both with and without LIF) may be similar. […] STAT3 activity may be similar for normoxic and hypoxic cells.

ES cells [2] = test: Oxygen consumption of ES cells; conditions: ES cells on galactose
Text: as §1

ES cells [3] = test: Lactate secretion of ES cells; conditions: after 24 hours; normoxic and hypoxic ES cells about 80 mg/dl
Text: as §1

ES cells [4] = test: JC-1 red/green fluorescence (mitochondrial membrane potential) by flow analysis; conditions: galactose-containing culture medium, about four days
Procedure: In order to assess if cells are primarily using oxidative phosphorylation or glycolysis, mitochondrial inner-membrane potential can be assayed by JC-1 fluorescence (1 ug/ml) in ES cells grown in both the presence (undifferentiated) and absence (differentiation) of LIF.
The cells of Example 1 were stained with 1 μg/ml 5,5′,6,6′-tetrachloro-1,1′,3,3′-tetraethyl-benzimidazolylcarbocyanine iodide (JC-1, Molecular Probes, Eugene, Oreg.) and flow cytometry was performed using a FACSCalibur flow cytometer (Becton Dickinson, San Jose, Calif.). Cells were stained as above and sorted using a FACSVantage SE cell sorter (Becton Dickinson).

ES cells [5] = test: JC-1 fluorescence sensitivity to MDR inhibitors (JC-1 staining and flow cytometry); conditions: CsA 20 μM, verapamil 200 μM, reserpine 10 μM
Procedure: ES cells were maintained in ES cell media consisting of DMEM (no pyruvate, high glucose) (Gibco-BRL), 15% fetal calf serum (FCS) (Hyclone), and supplements (as described in Robertson, E. J. (1987) IRL Press Limited, Oxford, page 71-112). Supplemental Leukemia Inhibitory Factor (LIF) (1:1000 dilution) was prepared by transfecting COS-7 cells (ATCC) with a LIF expression vector, pCAGGS-LIF, then collecting and testing the supernatant 48 hours later (as described in Smith, A. (1991) Journal of Tissue Culture Methods 13:89-94). Irradiated mouse embryonic fibroblasts (MEFs) were derived from d13 embryos for use as feeder cells (as described in Robertson (1987) (supra)). […]
For MDR inhibitor dose response assays, cells were trypsinized for 15 minutes, quenched with ES cell media, triturated to a single cell suspension, and centrifuged at 1000 rpm for 5 minutes. […] Following centrifugation, cells were washed […] with cold HBSS, centrifuged and resuspended in cold PBS at the same concentration, placed on ice, and analyzed within 60 minutes (as described in Cossarizza et al. (1993) Biochem. Biophys. Res. Commun. 197:40-45). […]
Using the cationic fluorescent dye, JC-1, functionally distinct populations of ES cells were identified. […] Generally, less than 5% of the cells maintained a “JC-1 green only” fluorescence profile when treated with any of these inhibitors. […]

## O=CC[C@@H](O)[C@H](O)[C@H](O)CO [2-dG, 2-deoxy glucose]
ES cells [1]; 2-deoxy glucose 0.5 mM
  reduction of proliferation rate: ≤ 3 fold

## O=C[C@H](O)[C@@H](O)[C@@H](O)[C@H](O)CO [galactose]
ES cells [2]
  oxygen consumption, more than cells sustained on glucose: about 50%
ES cells [3]
  lactate secretion: < 10 mg/dL
ES cells [1]; galactose-containing culture medium, about four days
  increase of doubling time: about 25%
ES cells [1]; galactose-containing culture medium, about four days, 16 hours under standard conditions
  doubling time: 20 h
ES cells [4]
  sub-population of ES cells showing JC-1 red fluorescence: slightly increased

## CC[C@H]1/C=C/C=C/C[C@@H](C)[C@H](O)[C@@](C)(O)C(=O)[C@@H](C)[C@H](O)[C@@H](C)C(=O)[C@@H](C)[C@H](O)[C@@H](C)/C=C/C(=O)O[C@@H]2[C@H](C)[C@H](CC1)O[C@]1(CC[C@H](C)[C@H](C[C@@H](C)O)O1)[C@H]2C [oligomycin]
ES cells [1]; oligomycin 3 μM or FCCP+ oligomycin
  effect on proliferation rates: dramatically reduces proliferation rates

## COC(=O)[C@H]1[C@H]2C[C@@H]3c4[nH]c5cc(OC)ccc5c4CCN3C[C@H]2C[C@@H](OC(=O)c2cc(OC)c(OC)c(OC)c2)[C@@H]1OC [reserpine]
ES cells [5]
  shift of JC-1 fluorescence on addition of inhibitor: dramatic shift of the majority of cells towards red fluorescence

## COc1ccc(CCN(C)CCCC(C#N)(c2ccc(OC)c(OC)c2)C(C)C)cc1OC (stereo not drawn) [verapamil]
ES cells [5]
  shift of JC-1 fluorescence on addition of inhibitor: dramatic shift of the majority of cells towards red fluorescence
